In assay [1] the test system is Peripheral Blood Mononuclear Cells (PBMCs). Kind of assay: LPS-stimulated PBMC TNFα release assay. It counts as cell-based. The conditions noted are these: IC50 classes; human PBMC, LPS 10 ng/ml, 18 h; read-out: LPS-stimulated PBMC TNFα release inhibition. Here is the method:
1-10 nM ‘+’; • <1 nM ‘++’ LPS-Stimulated PBMC TNFα Release Assay
Peripheral Blood Mononuclear Cells (PBMCs) were isolated from healthy human volunteer blood using a standard density gradient centrifugation technique. Citrated blood was placed onto Histopaque™ and centrifuged. The PBMCs were removed from the density gradient interface and washed in phosphate buffered saline (PBS). The PBMCs were suspended in RPMI 1640 medium (without serum), dispensed into a 96-well plate and incubated at 37° C. for 3 h in a humidified incubator. After incubation, the medium was replaced (with medium containing 1% foetal bovine serum) and the plate incubated at 37° C., for 1 h, in the presence of test compound or the appropriate vehicle. LPS (10 ng/ml), or an appropriate vehicle control, was then added to the cells and the plate returned to the incubator for 18 h. Cell-free supernatants were removed and assayed for TNFα levels using MSD plates on the Sector Imager 6000 (MesoScale).
A dose response curve to each test compound was performed and the effect of compound in each experiment was expressed as a percentage inhibition of the control TNFα release. Dose response curves were plotted and compound potency (IC50) was determined. Compounds were tested in at least three separate experiments.

For another assay, the target named is T1, p38alpha (Homo sapiens, UniProt Q16539).
T1 construct: purchased Invitrogen PV3304
The assay can be described thus: P38alpha enzyme inhibition assay (Alphascreen kinase activity assay). Type of assay: biochemical. To be noted: IC50 classes; 2 hours preincubation at 25° C., 250 μM ATP; read-out: p38α inhibition. Here is the method: P38alpha Enzyme Inhibition Assay
The inhibitory activity of compounds was determined using an Alphascreen® (Perkin Elmer) based kinase activity assay. Kinase reactions consisted of 25 mM HEPES pH 7.5, 10 mM MgCl2, 100 μM Na3VO4, 2 mM DTT, 0.05 mg/ml Tween […] (Invitrogen, PV3304), 1% DMSO and 0.3 μg/ml ATF-2 fusion protein (New England Biolabs, 9224). Compounds were incubated under these conditions for 2 hours, at 25° C., prior to the initiation of the kinase activity by the addition of the 250 μM ATP. Reaction volumes were 20 uL. After 1 hr at 25° C. reactions were stopped by the adding 10 uL of 25 mM HEPES pH 7.5 containing 62.5 mM EDTA, 0.05% Triton X-100, 10% BSA and 0.83 ng/uL anti-phospho-ATF2 antibody (Abcam, ab28812). Detection was performed by measuring luminescence following the addition of Alphascreen Donor beads (Perkin Elmer 6765300) and Protein A Alphascreen Acceptor beads (Perkin Elmer 6760137), both at a final concentration of 20 ug/ml. IC50 values were determined from concentration-response curves.

The next assay has as its system BEAS-2B cells. Kind of assay: TNFα-stimulated BEAS-2B IL-8 release assay. It counts as cell-based. The conditions noted are these: Homo sapiens, IC50 classes, TNF-α 10 ng/ml, 18 h, read-out: TNFα-stimulated BEAS-2B IL-8 release inhibition. On the procedure:
TNFα-Stimulated BEAS-2B IL-8 Release Assay
Human bronchial epithelial cell line BEAS-2B was purchased from Sigma (St. Louis, Mo.). BEAS-2B cells were cultured in Bronchial Epithelial cell Growth Medium (BEGM), prepared by supplementing Bronchial Epithelial Basal Medium with SingleQuotes™ (Lonza, Switzerland), which contains retinoic acid, epidermal growth factor, epinephrine, transferrin, triiodothyronin, insulin, hydrocortisone, antimicrobial agents, and bovine pituitary extract. In addition, BEGM medium was supplemented with 2 mM glutamine, 100 U penicillin and 100 μg/ml streptomycin (Life Technologies), in an atmosphere of 95% air and 5% CO2 at 37° C.
BEAS-2B were seeded in 48-well plates at the density of 3×10^4 cells per well, grown to approximately 80-90% confluence. Cells were pre-incubated with p38 inhibitors for 1 hour and then stimulated with TNF-α (10 ng/ml) for 18 h at 37° C. with 5% CO2. Subsequently, supernatants were collected and used for measuring IL-8 levels using a paired antibody quantitative ELISA kit purchased from Life Technologies (detection limit: […]). All the treatments were performed at least in quadruplicate.
A concentration-response curve to each test compound was performed and the effect of compound in each experiment was expressed as a percentage inhibition of the control IL-8 release. Compound potency (IC50) was calculated by the analysis of the sigmoidal dose-response curve (variable slope) elaborated by Graph Pad PRISM4 program.

Structures can show the parent of a compound that is named as a salt.

T1 sequence (Q16539 whole entry): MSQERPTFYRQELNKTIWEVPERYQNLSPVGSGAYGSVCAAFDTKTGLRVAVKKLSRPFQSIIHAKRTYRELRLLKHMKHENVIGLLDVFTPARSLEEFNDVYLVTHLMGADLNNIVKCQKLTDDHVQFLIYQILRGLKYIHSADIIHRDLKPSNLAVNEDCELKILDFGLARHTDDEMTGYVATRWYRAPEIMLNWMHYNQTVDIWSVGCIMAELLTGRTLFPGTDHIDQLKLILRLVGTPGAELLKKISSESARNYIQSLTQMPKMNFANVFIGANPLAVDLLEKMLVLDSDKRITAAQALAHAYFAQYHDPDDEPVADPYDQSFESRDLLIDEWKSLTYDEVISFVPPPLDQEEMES

For the compound `COc1c(CO)cc(C(C)(C)C)cc1NC(=O)N[C@H]1CC[C@@H](Oc2ccc3nnc([C@@H]4CCCN4C(C)C)n3c2)c2ccccc21` [Example 6, 1-(5-tert-Butyl-3-hydroxymethyl-2-methoxy-phenyl)-3-{(1S,4R)-4-[3-((S)-1-isopropyl-pyrrolidin-2-yl)-[1,2,4]triazolo[4,3-a]pyridin-6-yloxy]-1,2,3,4-tetrahydro-naphthalen-1-yl}-urea], the IC50 in assay [1] was < 1 nM; on p38alpha, 1 to 10 nM; in the assay on BEAS-2B cells, < 0.3 nM.
`COC(=O)Nc1cc(NC(=O)N[C@H]2CC[C@@H](Oc3ccc4nnc([C@]5(C)CCCN5C)n4c3)c3ccccc32)cc(C(C)(C)C)c1` [Example 46, [3-tert-Butyl-5-(3-{(1S,4R)-4-[3-((S)-1,2-dimethyl-pyrrolidin-2-yl)-[1,2,4]triazolo[4,3-a]pyridin-6-yloxy]-1,2,3,4-tetrahydro-naphthalen-1-yl}-ureido)-phenyl]-carbamic acid methyl ester]: the IC50 in assay [1] was < 1 nM; at p38alpha it was 1 to 10 nM; in the assay on BEAS-2B cells, < 0.3 nM.
For `COc1c(NC(C)=O)cc(C(C)(C)C)cc1NC(=O)N[C@H]1CC[C@@H](Oc2ccc3nnc([C@@H]4CCCCN4C)n3c2)c2ccccc21` [Example 12, N-[5-tert-Butyl-2-methoxy-3-(3-{(1S,4R)-4-[3-((S)-1-methyl-piperidin-2-yl)-[1,2,4]triazolo[4,3-a]pyridin-6-yloxy]-1,2,3,4-tetrahydro-naphthalen-1-yl}-ureido)-phenyl]-acetamide] the same measures were 1 to 5 nM, < 1 nM and 0.3 to 1 nM.
`COc1ccc(C(C)(C)C)cc1NC(=O)N[C@H]1CC[C@@H](Oc2ccc3nnc([C@@H]4CCCN4C)n3c2)c2ccccc21` [Example 1, hydrochloride salt]: the IC50 in assay [1] was < 1 nM; at p38alpha it was < 1 nM; with BEAS-2B cells it was < 0.3 nM.
Take `CN1CCC[C@@]1(C)c1nnc2ccc(O[C@@H]3CC[C@H](NC(=O)Nc4cc(C(N)=O)cc(C(C)(C)C)c4)c4ccccc43)cn12` [Example 53, 3-tert-Butyl-5-(3-{(1S,4R)-4-[3-((S)-1,2-dimethyl-pyrmlidin-2-yl)-[1,2,4]triazolo[4,3-a]pyridin-6-yloxy]-1,2,3,4-tetrahydro-naphthalen-1-yl}-ureido)-benzamide]: the IC50 in assay [1] was < 1 nM; at p38alpha, < 1 nM; in the assay on BEAS-2B cells, < 0.3 nM.
For the compound `COc1c(NC(C)=O)cc(C(C)(C)C)cc1NC(=O)N[C@H]1CC[C@@H](Oc2ccc3nnc([C@]4(C)CCCN4C)n3c2)c2ccccc21` [Example 8, N-[5-tert-Butyl-3-(3-{(1S,4R)-4-[3-((S)-1,2-dimethyl-pyrrolidin-2-yl)-[1,2,4]triazolo[4,3-a]pyridin-6-yloxy]-1,2,3,4-tetrahydro-naphthalen-1-yl}-ureido)-2-methoxy-phenyl]-acetamide], the IC50 was < 1 nM in assay [1], 1 to 10 nM at p38alpha and < 0.3 nM in the assay on BEAS-2B cells.
The corresponding values for `CNC(=O)c1cc(NC(=O)N[C@H]2CC[C@@H](Oc3ccc4nnc([C@]5(C)CCCN5C)n4c3)c3ccccc32)cc(C(C)(C)C)c1` [Example 55, 3-tert-Butyl-5-(3-{(1S,4R)-4-[3-((S)-1,2-dimethyl-pyrrolidin-2-yl)-[1,2,4]triazolo[4,3-a]pyridin-6-yloxy]-1,2,3,4-tetrahydro-naphthalen-1-yl}-ureido)-N-methyl-benzamide] are < 1 nM, < 1 nM and < 0.3 nM.
Turning to `CN1CCC[C@H]1c1nnc2ccc(O[C@@H]3CC[C@H](NC(=O)Nc4cc(NS(C)(=O)=O)cc(C(C)(C)C)c4)c4ccccc43)cn12` [Example 21], the IC50 in assay [1] is 1 to 5 nM; on p38alpha, < 1 nM; in the assay with BEAS-2B cells, 0.3 to 1 nM.
For `CN1CCC[C@@]1(C)c1nnc2ccc(O[C@@H]3CC[C@H](NC(=O)Nc4cc(CN(CCO)CCO)cc(C(C)(C)C)c4)c4ccccc43)cn12` [Example 75, 1-(3-{[Bis-(2-hydroxy-ethyl)-amino]-methyl}-5-tert-butyl-phenyl)-3-{(1S,4R)-4-[3-((S)-1,2-dimethyl-pyrrolidin-2-yl)-[1,2,4]triazolo[4,3-a]pyridin-6-yloxy]-1,2,3,4-tetrahydro-naphthalen-1-yl}-urea] the same measures were 1 to 5 nM, < 1 nM and > 1 nM.
`CN1CCC[C@@]1(C)c1nnc2ccc(O[C@@H]3CC[C@H](NC(=O)Nc4cc(COCCN5CCOCC5)cc(C(C)(C)C)c4)c4ccccc43)cn12` [Example 72, 1-[3-tert-Butyl-5-(2-morpholin-4-yl-ethoxymethyl)-phenyl]-3-{(1S,4R)-4-[3-((S)-1,2-dimethyl-pyrrolidin-2-yl)-[1,2,4]triazolo[4,3-a]pyridin-6-yloxy]-1,2,3,4-tetrahydro-naphthalen-1-yl}-urea]: the figures for the IC50 (in assay [1]; on p38alpha; with BEAS-2B cells) were > 5 nM, < 1 nM and 0.3 to 1 nM, respectively.
The corresponding values for `CN1CCC[C@]1(C)c1nnc2ccc(O[C@@H]3CC[C@H](NC(=O)Nc4cc(NS(C)(=O)=O)cc(C(C)(C)C)c4)c4ccccc43)cn12` [Example 20, N-[3-tert-Butyl-5-(3-{(1S,4R)-4-[3((R)-1,2-dimethyl-pyrrolidin-2-yl)-[1,2,4]triazolo[4,3-a]pyridin-6-yloxy]-1,2,3,4-tetrahydro-naphthalen-1-yl}-ureido)-phenyl]-methanesulfonamide] are < 1 nM, < 1 nM and < 0.3 nM.
Take `CN1CCC[C@@]1(C)c1nnc2ccc(O[C@@H]3CC[C@H](NC(=O)Nc4cc(NS(C)(=O)=O)cc(C(C)(C)C)c4)c4ccccc43)cn12` [Example 24, N-[3-tert-Butyl-5-(3-{(1S,4R)-4-[3-((S)-1,2-dimethyl-pyrrolidin-2-yl)-[1,2,4]triazolo[4,3-a]pyridin-6-yloxy]-1,2,3,4-tetrahydro-naphthalen-1-yl}-ureido)-phenyl]-methanesulfonamide]: the IC50 in assay [1] was < 1 nM; at p38alpha, < 1 nM; in the assay on BEAS-2B cells, < 0.3 nM.
Take `COc1c(NC(C)=O)cc(C(C)(C)C)cc1NC(=O)N[C@H]1CC[C@@H](Oc2ccc3nnc([C@@H]4CCCN4C(C)C)n3c2)c2ccccc21` [Example 9, N-[5-tert-Butyl-3-(3-{(1S,4R)-4-[3-((S)-1-isopropyl-pyrrolidin-2-yl)-[1,2,4]triazolo[4,3-a]pyridin-6-yloxy]-1,2,3,4-tetrahydro-naphthalen-1-yl}-ureido)-2-methoxy-phenyl]-acetamide]: the IC50 in assay [1] was < 1 nM; at p38alpha, 1 to 10 nM; in the assay with BEAS-2B cells, < 0.3 nM.
For the compound `COC(=O)c1cc(NC(=O)N[C@H]2CC[C@@H](Oc3ccc4nnc([C@]5(C)CCCN5C)n4c3)c3ccccc32)cc(C(C)(C)C)c1` [Example 41, 3-tert-Butyl-5-(3-{(1S,4R)-4-[3-((S)-1,2-dimethyl-pyrrolidin-2-yl)-[1,2,4]triazolo[4,3-a]pyridin-6-yloxy]-1,2,3,4-tetrahydro-naphthalen-1-yl}-ureido)-benzoic acid methyl ester], the IC50 is 1 to 10 nM on p38alpha and < 0.3 nM with BEAS-2B cells.

The values above are taken from patent publication US10100050B2 (CHIESI FARMACEUTICI S.P.A., priority 2015, dated 2018).
